Measurements published in patent US20070093499A1, “Use of dasatinib for the treatment of bone metastasis” (Bristol-Myers Squibb Company, priority 2005, published 2007).
Ends that are not written are not given here.

Columns and labels:
[1] = test system: TRAP positive osteoclasts in mouse bone marrow cell culture; assay: Osteoclast formation (TRAP staining) in mouse bone marrow cell culture; assay type: cell-based
Description: Bone marrow was harvested by flushing the femur and tibia bones of CDF-1 mice with PBS followed by washing twice with PBS and resuspending in DMEM with 10% FBS (1-2×10^6 cells/m, 10 ml). Cells were then seeded in 24-well plates (2×10^6 cells/well/ml) and were cultured for 6-9 days in DMEM media supplemented with the cytokines: 10 ng/ml recombinant mouse M-CSF-1 and 100 ng/ml recombinant mouse RANK ligand to induce osteoclast development. Culture medium was replaced every two days till day 5 and there was no medium replacing between day 6 and day 9. […] On days 5, 7, and 9, cell viability and number of TRAP positive cells were determined using the Acid Phosphatase Leukocyte staining kit. The bone marrow cells were washed with PBS and stained according to the protocol recommended by the vendor. TRAP positive cells and osteoclasts were counted using an inverted microscope.
Differentiation to osteoclasts then occurs in the presence of osteoclast differentiation factor or RANK ligand (Buckley and Fraser Buckley, K. A. and W. D. Fraser (2002). “Receptor activator for nuclear factor kappaB ligand and osteoprotegerin: regulators of bone physiology and immune responses/potential therapeutic agents and biochemical markers.” Ann Clin Biochem 39(Pt 6): 551-6.). To establish the cell culture model of osteoclasts, bone marrow cells were freshly harvested from the tibia and femur bones of mice and were seeded in 24-wells plates containing DMEM medium supplemented with 20 ng/ml M-CSF and 100 ng/ml RANK ligand, which are the conditions commonly used in murine bone marrow culturing conditions (Murray, L. J., T. J. Abrams, et al. (2003). “SU11248 inhibits tumor growth and CSF-1R-dependent osteolysis in an experimental breast cancer bone metastasis model.” Clin Exp Metastasis 20(8): 757-66.). The formation of osteoclasts was monitored by TRAP staining for 9 days. […] Starting from day 5, TRAP positive staining cells were observed, and the multi-nucleated TRAP positive staining osteoclasts (with ≧3 nuclei) were clearly detected on day 7 and became most abundant by day 9.
[…]. […] […]. […] […].

[2] = test system: PTH-stimulated bone resorption in fetal rat long bones; assay: In vitro bone resorption assay (45Ca release from fetal rat long bones); assay type: cell-based
Description: Fetal rat long bones were prepared and cultured as described previously. (Feyen J H M, Cardinaux F, Gamse R, Bruns C, Azria M, and Trechsel U. N-terminal truncation of salmon calcitonin leads to calcitonin antagonist. Structure activity relationship of N-terminally truncated salmon calcitonin fragments in vitro and in vivo. Biochemistry and Biophysiology Research Communication 1992; 187:8-13.) Briefly, pregnant Sprague Dawley rats were injected subcutaneously with 200 μCi ^45Ca on day 18 of gestation. The following day, radii and ulnae were dissected free from muscle and connective tissue. The cartilaginous ends of the bones were removed and the calcified diaphyses were cultured in 0.5 mL BGJ medium supplemented with 1 mg/mL bovine serum albumin (BSA, fraction V) in 24-well tissue culture plates in a CO2 incubator at 37° C. overnight to reduce free exchangeable calcium. Next, medium was replaced and the bone explants were maintained in culture for 5 days in the presence or absence of the compounds to be tested. On day 2, a 100 μL aliquot was taken from the medium and the medium was replaced with fresh medium with or without treatments. […] The amount of radioactive calcium was determined using a Beckman liquid scintillation counter. Bone resorption was expressed as the percentage ^45Ca released by day 5 of total amount of ^45Ca originally incorporated in bone explants.

[3] = test system: TPTX rats; assay: Inhibition of PTH-induced hypercalcemia (serum calcium) in TPTX rats, oral BMS-354825; assay type: in vivo, rat
Description: Male Sprague-Dawley TPTX rats with basal serum calcium levels around 7-8 mg/dl were randomly assigned to the experimental groups. Alzet® mini-pumps containing a resorption stimulus (PTH: infusion rate of 0.3 μg/hr) were implanted subcutaneously. In brief, rats were anesthetized with isoflurane (5% of oxygen), the skin of the flank area was disinfected with a topical disinfectant. Following a small incision, a subcutaneous pouch was made with a sterile pair of blunt scissors, a mini-pump was inserted and the incision was closed with a wound clip. Upon drug administration, 500 μl of blood was sampled at the indicated time points by retro-orbital bleeding, the serum was collected and frozen at −80° C. Levels of serum calcium and drug were analyzed accordingly.
The serum levels of calcium of TPTX rats were quantitated by a photometric assay with the Roche Hitachi 917 (H9 17) automated chemistry analyzer (Indianapolis, Ind.). In this method, calcium reacts with o-cresolphthalein complexone in the presence of 8-hydroxyquinoline to form a purple chromophore. The color intensity of the purple complex is directly proportional to the calcium concentration and is measured photometrically on the analyzer. This method is capable of quantifying 0.2-18.2 mg/dL of serum calcium. For samples >18.2 mg/dL the samples must be diluted in saline and the value multiplied by the appropriate factor.
Malignancy related hypercalcemia has been strongly linked with bone resorption mediated by stimulation of native osteoclast formation and activity. […] In this model, the thyroid and parathyroid are surgically removed to induce hypocalcemia, then subsequent infusion with PTH stimulates the osteoclast-mediated calcemic response. […]. […] […]. […] […].
“Zoledronic acid versus placebo in the treatment of skeletal metastases in patients with lung cancer and other solid tumors: a phase III, double-blind, randomized trial—the Zoledronic Acid Lung Cancer and Other Solid Tumors Study Group.” J Clin Oncol 21(16): 3150-7). […] […]. […] […]. Due to the fact that osmotic pump works less efficiently after day 4, we intended not to include the data of calcium levels thereafter. […].

[4] = in vivo; conditions: Sprague-Dawley, rat, po, 30 mg/kg
Description: The serum levels of drug were analyzed by high performance liquid chromatography/mass spectrometry (HPLC/MS). […] After centrifugation to remove precipitated proteins, 5 μl of the supernatant was analyzed by HPLC/MS. The HPLC column was a Phenomenex Prodigy C18-ODS3 column (2 mm×50 mm, […]) maintained at 60° C. with a flow rate of 0.5 ml/min. […] The HPLC was interfaced to a Finnigan LCQ Advantage ion-trap mass spectrometer operated in the positive ion electrospray and full MS/MS mode. […] The limit of quantitation (LOQ) for the purposes of this assay was 0.004 μM. Quality control (QC) samples at two levels in the range of the standard curve were used to accept individual analytical sets. [drawing 3]
PK data analysis was performed by noncompartmental method using Kinetica (v4.0.2, InnaPhase Corporation, Philadelphia, Pa.). The maximum plasma concentration (Cmax) and the time reaching Cmax (Tmax) were determined by visually inspecting the profiles of plasma level of drug vs. time. […] The area under the plasma drug concentration curve (AUC) was estimated by the trapezoidal rule.

[5] = test system: TPTX rats; assay: Serum calcium in thyro-parathyroidectomized rats, IP dosing; assay type: in vivo, rat
Description: Thyro-parathyroidectomy (TPTX) surgery was performed on male Sprague-Dawley rats (200 gram body weight) as described previously.4 Thyro-parathyroidectomized (TPTX) rats with serum calcium values of 5-8 mg/dl were used for the study (normal reference range is 10-12 mg/dl). On the day of the study (48 hours post-surgery), blood was collected from the tail vein under isoflurane anesthesia, and Alzet mini-pumps (delivering 1 μl/hr) containing 0.3 μg/ml of parathyroid hormone (PTH) were implanted subcutaneously. […] Blood was collected at 3, 6 & 24 hours after dosing and analyzed for serum calcium levels.

[6] = test system: fetal rat long bone culture; conditions: Missbach et al. 1999; cited from earlier work
[7] = test system: ovariectomized rats; conditions: Missbach et al. 1999; cited from earlier work
[8] = test system: osteoclasts; conditions: cell culture; Murray et al. 2003; cited from earlier work
[9] = test system: bone resorption; conditions: Murray et al. 2003; cited from earlier work

Cc1nc(Nc2ncc(C(=O)Nc3c(C)cccc3Cl)s2)cc(N2CCN(CCO)CC2)n1 [BMS-354825, N-(2-chloro-6-methylphenyl)-2-((6-(4-(2-hydroxyethyl)-1-piperazinyl)-2-methyl-4-pyrimidinyl)amino)-1,3-thiazole-5-carboxamide]
formation of osteoclasts ([1]; DMEM with M-CSF/RANK ligand, dosed on day 5 post seeding): inhibited dose dependently | IC50 ([1]; Mus musculus, Osteoclast, 120 h, read-out: IC50, drug concentration required to inhibit 50% of osteoclast formation): 4.4 nM | number of osteoclasts ([1]; both culturing conditions: MDA-MB-231 condition media and DMEM with CSF/RANK ligand): significantly reduced | number of the TRAP positive staining osteoclasts ([1]; various concentrations dosed on day 5, cultured up to 9 days): significantly reduced | IC50 ([2]; Rattus norvegicus, PTH 10^-8 M, read-out: apparent IC50, PTH-stimulated release of 45Ca (bone resorption)): 2 nM | PTH-stimulated bone resorption ([2]; at 5 nM): completely blocks | inhibition of hypercalcemia compared with zometa 0.4 mg/kg/dose sc ([3]; 30 mg/kg/dose po, once daily): more effective than zometa | inhibition of hypercalcemia compared with zometa 0.4 mg/kg/dose sc ([3]; 15 and 5 mg/kg/dose po, multiple treatment schedule): comparable inhibitory effect | time to inhibition of serum calcium levels ([3]; 30, 15, 5 mg/kg/dose po (QD×5), PTH infused 24 hr prior to treatment): ≤ 3 h | inhibition of serum calcium levels ([3]; 30, 15 and 5 mpk po (QD×1), upon initiation of PTH infusion): dose dependent inhibition | inhibition of serum levels of calcium ([3]; 30 mpk (QD×1) and 15 mpk (2QD×1), orally): rapidly inhibited | serum calcium levels vs control rats ([3]; day 3 post drug administration, 30 mpk QD×1 / 15 mpk 2QD×1 po): significantly below those of the control rats | time of maximum inhibition of serum calcium levels ([3]; post drug administration, 15 and 30 mg/kg/dose po): 4 h | AUC0-24 hr [4]: 0.91 µM·h | Cmax [4]: 60 nM | AUC(0-t) ([4]; AUC0-24 hr): 1.16 µM·h | Serum Calcium ([5]; 3 mg/kg ip, 0 Hour (before dosing)): 6.74 ± 0.29 mg/dL | Serum Calcium ([5]; 3 mg/kg ip, 3 Hour): 5.68 ± 0.26 mg/dL | Serum Calcium ([5]; 3 mg/kg ip, 6 Hour): 7.94 ± 1.19 mg/dL | Serum Calcium ([5]; 3 mg/kg ip, 24 Hour): 11.88 ± 0.61 mg/dL | significance of serum calcium effect vs vehicle ([5]; 3 mg/kg ip, 3 hour time point): not significant | Serum Calcium ([5]; 10 mg/kg ip, 0 Hour (before dosing)): 6.68 ± 0.25 mg/dL | Serum Calcium ([5]; 10 mg/kg ip, 3 Hour): 5.80 ± 0.19 mg/dL | Serum Calcium ([5]; 10 mg/kg ip, 6 Hour): 5.36 ± 0.12 mg/dL | Serum Calcium ([5]; 10 mg/kg ip, 24 Hour): 7.70 ± 0.78 mg/dL | serum calcium levels vs vehicle and calcitonin ([5]; 10 mg/kg ip, after 24 hours): significantly lower than both vehicle and calcitonin

COc1cccc(-c2cn(-c3ccc(CCN4CCC(O)CC4)cc3)c3ncnc(N)c23)c1 [CGP77675]
parathyroid hormone (PTH)-induced bone resorption [6]: inhibitory potency | bone resorption [7]: inhibitory potency

CCN(CC)CCNC(=O)c1c(C)[nH]c(/C=C2\C(=O)Nc3ccc(F)cc32)c1C [Su-11248]
formation and function of osteoclasts [8]: inhibitory potency | bone resorption in vivo [9]: inhibitory potency

O=P(O)(O)C(O)(Cn1ccnc1)P(=O)(O)O [zometa, reference compound]
onset of inhibition of serum calcium levels ([3]; 0.4 mg/kg/dose sc (QD×5), PTH infused 24 hr prior to treatment): did not produce any appreciable inhibition until 24 hr

Salmon Calcitonin [reference compound]
Serum Calcium ([5]; 5 IU ip, 0 Hour (before dosing)): 6.68 ± 0.21 mg/dL | Serum Calcium ([5]; 5 IU ip, 3 Hour): 5.06 ± 0.13 mg/dL | Serum Calcium ([5]; 5 IU ip, 6 Hour): 5.14 ± 0.15 mg/dL | Serum Calcium ([5]; 5 IU ip, 24 Hour): 10.62 ± 0.64 mg/dL

calcitonin: a drug currently being used to manage hypercalcemia clinically, used as a reference compound (CGNLSTCMLGTYTQDFNKFHTFPQTAIGVGAP; ends and bridges not checked; cysteine pairing not given here; UniProt P01258 85-116, looked up) [reference compound]
inhibition of serum calcium levels ([3]; 5 IU/dose sc): rapid inhibition of serum calcium levels, but the inhibition was reversed rapidly | serum calcium levels vs control rats ([3]; day 3, 5 IU/dose sc): no significant difference
